How the values were obtained:
Assay type in all cases: cell-based
CV-1 = assay: Cytotoxic activity screening, CV-1 cells; conditions: Cercopithecidae
[1] = tested on: HT-29 (monolayer culture of a human colon carcinoma); assay: Cytotoxic activity screening, HT-29 cells; conditions: Homo sapiens, HT-29, 72 h, three days of incubation, Crystal Violet, approximate IC50
Protocol: (§1) Cell Cultures. Cells were maintained in logarithmic phase of growth in Eagle's Minimum Essential Medium, with Earle's Balanced Salts, with 2.0 mM L-glutamine, with non-essential amino acids, without sodium bicarbonate (EMEM/neaa); supplemented with 10% Fetal Calf Serum (FCS), 10^−2 M sodium bicarbonate and 0.1 g/l penicillin-G+streptomycin sulfate.
(§2) A simple screening procedure has been carried out to determine and compare the antitumour activity of these compounds, using an adapted form of the method described by Bergeron et al (1984). The tumour cell line employed have been P-388 (suspension culture of a lymphoid neoplasm from DBA/2 mouse), A-549 (monolayer culture of a human lung carcinoma), HT-29 (monolayer culture of a human colon carcinoma) and MEL-28 (monolayer culture of a human melanoma).
(§3) A-549, HT-29 and MEL-28 were seeded into 16 mm wells at 2×10^4 cells per well in 1 ml aliquots of MEM 10FCS containing the indicated concentration of drug. A separate set of cultures without drug was seeded as control growth to ensure that cells remained in exponential phase of growth. All determinations were carried out in duplicate. After three days of incubation at 37° C., 10% CO2 in a 98% humid atmosphere, the wells were stained with 0.1% Crystal Violet. An approximately IC50 was determined by comparing the growth in wells with drug to the growth in wells control.

[2] = tested on: MEL-28 (monolayer culture of a human melanoma); assay: Cytotoxic activity screening, MEL-28 cells; conditions: SK-MEL-28, 72 h, three days of incubation, Crystal Violet, approximate IC50
Protocol: as §1, §2, §3

DU-145 = assay: Cytotoxic activity screening, DU-145 cells; conditions: Homo sapiens, DU-145, DU-145 cells
[3] = tested on: P-388 (suspension culture of a lymphoid neoplasm from DBA/2 mouse); assay: Cytotoxic activity screening, P-388 cells; conditions: Mus musculus, P388, 72 h, three days of incubation, approximate IC50
Protocol: as §1, §2
P-388 cell were seeded into 16 mm wells at 1×10^4 cells per well in 1 ml aliquots of MEM 5FCS containing the indicated concentration of drug. A separate set of cultures without drug was seeded as control growth to ensure that cells remained in exponential phase of growth. All determinations were carried out in duplicate.

[4] = tested on: A-549 (monolayer culture of a human lung carcinoma); assay: Cytotoxic activity screening, A-549 cells; conditions: Homo sapiens, A549, 72 h, three days of incubation, Crystal Violet, approximate IC50
Protocol: as §1, §2, §3

Measured: IC50

COc1c(C)cc2c(c1O)[C@@H]1C3Cc4c(O)c(C)c5c(c4[C@H](CN4C(=O)c6ccccc6C4=O)N3[C@@H](C#N)[C@H](C2)N1C)OCO5 (stereo partly drawn)
0.001 µM: CV-1 | [1] | [2] | DU-145 | [3] | [4]
